Measurements from patent US7501238B2, “Skin substitutes for irritancy testing” (priority 2001, dated 2009).
Where two headings read alike, the source gives them in different places.

Legend:
[1] = system: NIKS organotypic cultures; test: IL-1α secretion by NIKS organotypic cultures after topical irritant (ELISA); assay type: cell-based, human; conditions: 24 hr at 37° C.
Procedure: (§1) Solutions of SDS (0.1%, 0.2%, and 0.5%) were topically applied to air-exposed NIKS organotypic cultures and incubated for 24 hr at 37° C. After 24 hr, the media underneath the cultures was assayed for IL-1α protein using a Quantikine IL-1α ELISA kit (R&D Systems, Minneapolis, Minn.) and cultures were incubated with MTS reagent (Promega Corp., Madison, Wis.) to determine cell viability. Media from untreated cultures contained 25 pg/ml IL-1α, whereas the concentration of IL-1α in cultures treated with 0.1%, 0.2% or 0.5% SDS was 290, 375 and 275 pg/ml respectively.

[2] = system: NIKS organotypic cultures; test: MTS cell viability of irritant-treated NIKS organotypic cultures; assay type: cell-based, human; conditions: 0.5% SDS, 24 hr
Procedure: as §1
These values correspond well with published IL-1α responses in SDS-exposed skin equivalents (Perkins et al, Toxicological Sciences, 48:218 [1999]).

[3] = system: skin equivalents; conditions: irritant-treated skin equivalents; 0.2% SDS, 0.005% calcipotriol, 0.025% trans-retinoic acid; cited from earlier work
[4] = system: in vitro skin equivalent cultures; conditions: substance added to in vitro cultures, cited from earlier work
[5] = system: IL-8 promoter sequences between −1472 and +19 in tracheobronchial epithelial cells; conditions: cited from earlier work

Molecule | expression and secretion of the pro-inflammatory cytokines IL-1α and IL-8 [3] | Lipid Composition [4] | further results
CCCCCCCCCCCCOS(=O)(=O)[O-].[Na+] [SDS] | induce expression and secretion | – | concentration of IL-1α in media ([1]; 0.1% SDS applied topically): 290 pg/mL; concentration of IL-1α in media ([1]; 0.2% SDS applied topically): 375 pg/mL; concentration of IL-1α in media ([1]; 0.5% SDS applied topically): 275 pg/mL; cell viability (MTS assay) [2]: decreased cell viability
O=C1O[C@H]([C@@H](O)CO)C(O)=C1O [Vitamin C] | – | Major | Lipid Composition ([4]; listed as vitamin C): improved the lipid profile
C=C1/C(=C\C=C2/CCC[C@]3(C)[C@@H]([C@H](C)/C=C/[C@@H](O)C4CC4)CC[C@@H]23)C[C@@H](O)C[C@@H]1O [calcipotriol] | induce expression and secretion | – | –
CC1=C(/C=C/C(C)=C/C=C/C(C)=C/C(=O)O)C(C)(C)CCC1 [trans-retinoic acid] | induce expression and secretion | – | induction of reporter gene containing IL-8 promoter sequences [5]: induced
EGF: epidermal growth factor (NSDSECPLSHDGYCLHDGVCMYIEALDKYACNCVVGYIGERCQYRDLKWWELR; Epidermal growth factor; UniProt P01133 971-1023, looked up) | – | High triglycerides | –
Vitamin E | – | No effect | –
